Reference: patent US20210269479A1, “USE OF CY[…] FOR TREATING CANCER” (Hepion Pharmaceuticals, Inc., priority 2020, published 2021)
“Also recorded” adds a separate entry of the source.

Assays:
[1] = system: human precision cut liver slices (PCLS); test: RNA-Seq of PCLS, Stimulation Protocol (TGFb/PDGF + CRV vs TGFb/PDGF + Vehicle); type: cell-based
Experimental: (§1) PCLS were obtained from 5 human donors who underwent resection of liver cancer. Replicate slices were collected from healthy margins of the resections and cultured for 4 or 6 days depending on the experimental protocol. In the Nonstimulation Protocol slices were cultured for 6 days and treated for the entire period with DMSO vehicle or 5 μM CRV431. In the Stimulation Protocol slices were rested for 1 day and then administered the cytokines, TGFβ and PDGF-BB, for 3 days to stimulate inflammation and fibrosis. DMSO vehicle, CRV431 (1 and 5 μM), Alk5i (10 μM), obeticholic acid (5 μM), elafibranor (5 μM), resmetirom (5 μM), and Aramchol (5 μM) were administered individually as drug treatments in the Stimulation Protocol concurrent with TGFβ+PDGF-BB. Culture medium treatments were replaced daily.
(d) Gene expression by RNA-Seq. RNA sequencing of the complete transcriptome (30 million reads per sample) was conducted on vehicle and 5 μM CRV431 treatment groups from 3 donors both from the Nonstimulation and Stimulation Protocols. Data were analyzed by bioinformatics software programs to identify genes that were differentially expressed between vehicle and CRV431 treatments.
For the evaluation done for (d), 12 samples corresponding to 3 different donor slides which underwent 4 different treatments were studied. the comparisons carried out in this analysis are: (1) TGFb/PDGF+CRV vs TGFb/PDGF+Vehicle (V), and (2) Non-stimulated+CRV vs Non-stimulated+Vehicle.
Heatmaps were also generated to plot significant differently expressed genes for the comparison TGFb/PDGF+CRV and TGFb/PDGF+Vehicle (p-adjust<0.05, log fold change>0.5). The heatmap with the samples grouped by group is shown in FIG. 3A to observe the different expression pattern present within the group (blue=vehicle; red=CRV). The same significant genes were also plotted into another heatmap (FIG. 3B) but the samples are now plotted grouped by donor in order to observe the differences between donors (blue=vehicle; red=CRV).
Significant differently expressed genes that were identified in the comparison TGFb/PDGF+CRV and TGFb/PDGF+Vehicle ([…], log fold change>0.5) are shown in Table 2. The fold change is relative to the treatment (CRV).
As shown in the PCA analysis, there is a strong effect of the donor. Therefore, each donor was analyzed individually. Counts comparison was performed for TGFb/PDGF+[…] vs TGFb/PDGF+Vehicle by donor. […] Therefore the vehicle group had at least 300 copies less than CRV treatment. In other words, the treatment had at least 300 copies more than the Vehicle. After doing this selection individually for each donor, a venn diagram was plotted showing the overlapping between all three donors.
So, they had at least 300 copies less in the CRV treatment compared to the vehicle. After doing the selection individually for each donor, a venn diagram was plotted showing the overlapping between all three donors.

[2] = system: human precision cut liver slices (PCLS); test: Biomarker secretion from PCLS into culture medium (ELISA); type: cell-based; settings: collagen1α1, fibronectin, hyaluronic acid, IL-6, MCP-1
Experimental: as §1
(a) Biomarker secretion. Spent culture medium was collected daily from duplicate slices for each treatment. ELISAs were used to quantify secretion of monocyte chemoattractant protein (MCP-1), interleukin-6 (IL-6), tissue inhibitor of metalloproteinase-1 (TIMP1), hyaluronic acid, fibronectin, and collagen 1α1. For each donor the mean level of biomarker secretion in each treatment group was expressed as a percentage change relative to DMSO vehicle, the percentages averaged for all donors, and finally the mean daily percentage change calculated from all days of evaluation. […]

[3] = TGFb/PDGF + CRV vs TGFb/PDGF + Vehicle, 5 μM
[4] = presence of exogenous TGFβ+PDGF-BB, all donors

Structure (SMILES): CC[C@@H]1NC(=O)[C@H]([C@H](O)[C@H](C)CCCCCCNC(C)=O)N(C)C(=O)[C@H](C(C)C)N(C)C(=O)[C@H](CC(C)C)N(C)C(=O)[C@H](CC(C)C)N(C)C(=O)[C@@H](C)NC(=O)[C@H](C)NC(=O)[C@H](CC(C)C)N(C)C(=O)[C@H](C(C)C)NC(=O)[C@H](CC(C)C)N(C)C(=O)[C@@H](C)N(C)C1=O [CRV431]
- log2FoldChange, gene AC009053.1 [1, 3]: 1.194
- log2FoldChange, gene AC134772.2 [1, 3]: −4.561
- log2FoldChange, gene ADH1B [1, 3]: 2.156
- log2FoldChange, gene ADH1C [1, 3]: 1.869
- log2FoldChange, gene ADH4 [1, 3]: 2.123
- log2FoldChange, gene ADH6 [1, 3]: 1.903
- log2FoldChange, gene ADIRF [1, 3]: 1.402
- log2FoldChange, gene APLNR [1, 3]: 0.844
- log2FoldChange, gene ASPG [1, 3]: 0.91
- log2FoldChange, gene ATP13A4 [1, 3]: −3.082
- log2FoldChange, gene C7 [1, 3]: 0.739
- log2FoldChange, gene CA11 [1, 3]: −1.573
- log2FoldChange, gene CBFA2T2 [1, 3]: 1.299
- log2FoldChange, gene CD93 [1, 3]: −0.613
- log2FoldChange, gene CHST1 [1, 3]: −1.087
- log2FoldChange, gene COL5A3 [1, 3]: −0.842
- log2FoldChange, gene CXADR [1, 3]: 1.61
- log2FoldChange, gene CYP4A11 [1, 3]: 1.611
- log2FoldChange, gene CYP26A1 [1, 3]: −1.283
- log2FoldChange, gene CYP26B1 [1, 3]: −0.656
- log2FoldChange, gene DCHS1 [1, 3]: −0.686
- log2FoldChange, gene DLL4 [1, 3]: −0.69
- log2FoldChange, gene DUOX2 [1, 3]: −2.182
- log2FoldChange, gene DVL1 [1, 3]: 0.635
- log2FoldChange, gene ENSG00000283623 (symbol NA) [1, 3]: −5.759
- log2FoldChange, gene ERVK13-1 [1, 3]: −1.125
- log2FoldChange, gene ESAM [1, 3]: −0.573
- log2FoldChange, gene ESM1 [1, 3]: −1.401
- log2FoldChange, gene ESR1 [1, 3]: 3.688
- log2FoldChange, gene F2RL3 [1, 3]: −0.711
- log2FoldChange, gene GLYATL1 [1, 3]: 1.438
- log2FoldChange, gene GPR4 [1, 3]: −0.9
- log2FoldChange, gene GRAP [1, 3]: −0.772
- log2FoldChange, gene HIST2H2AA4 [1, 3]: −7.504
- log2FoldChange, gene IGHV4-61 [1, 3]: 7.957
- log2FoldChange, gene IGLON5 [1, 3]: −0.851
- log2FoldChange, gene ISLR2 [1, 3]: −1.27
- log2FoldChange, gene KDM6A [1, 3]: 0.785
- log2FoldChange, gene LAMA4 [1, 3]: −0.939
- log2FoldChange, gene LIMS3 [1, 3]: −1.705
- log2FoldChange, gene LOXL2 [1, 3]: −0.948
- log2FoldChange, gene MCAM [1, 3]: −0.841
- log2FoldChange, gene MEF2C [1, 3]: −1.013
- log2FoldChange, gene MEG3 [1, 3]: −0.853
- log2FoldChange, gene MRC2 [1, 3]: −0.773
- log2FoldChange, gene MROH2A [1, 3]: 3.641
- log2FoldChange, gene MT-CO1 [1, 3]: −0.85
- log2FoldChange, gene NID2 [1, 3]: −0.755
- log2FoldChange, gene NXPH4 [1, 3]: −0.808
- log2FoldChange, gene PAN2 [1, 3]: 1.019
- log2FoldChange, gene PANK3 [1, 3]: 0.687
- log2FoldChange, gene PCDH12 [1, 3]: −0.741
- log2FoldChange, gene PHF8 [1, 3]: 0.709
- log2FoldChange, gene PKLR [1, 3]: 2.127
- log2FoldChange, gene PLXNA2 [1, 3]: 1.326
- log2FoldChange, gene POU6F1 [1, 3]: −1.716
- log2FoldChange, gene PPP1R16B [1, 3]: −1.016
- log2FoldChange, gene RALGPS2 [1, 3]: 0.836
- log2FoldChange, gene RBMXL1 [1, 3]: −8.265
- log2FoldChange, gene RCCD1 [1, 3]: −1.838
- log2FoldChange, gene RHCG [1, 3]: −0.927
- log2FoldChange, gene RPS7P1 [1, 3]: 2.668
- log2FoldChange, gene SLC4A8 [1, 3]: −2.641
- log2FoldChange, gene SLC26A6 [1, 3]: −0.692
- log2FoldChange, gene SLC39A5 [1, 3]: 1.92
- log2FoldChange, gene SMC5 [1, 3]: 0.799
- log2FoldChange, gene STRA6 [1, 3]: −1.639
- log2FoldChange, gene STX16 [1, 3]: 1.025
- log2FoldChange, gene TDO2 [1, 3]: 0.916
- log2FoldChange, gene TMEM70 [1, 3]: 1.062
- log2FoldChange, gene TTYH2 [1, 3]: −1.114
- log2FoldChange, gene UBD [1, 3]: −1.035
- log2FoldChange, gene VWA8 [1, 3]: 1.514
- log2FoldChange, gene ZC3H10 [1, 3]: 1.022
- log2FoldChange, gene ZDHHC20 [1, 3]: 1.207
- log2FoldChange, gene ZNF461 [1, 3]: 1.391
- expression of fibrosis-related genes by RNA-Seq ([1]; collagen genes, collagen hydroxylases and oxidases, ACTA2, VEGF, TIMPs): decreased expression of many fibrosis-related genes
- fold change in RNA, DUOX2 [1, 4]: −4.5 fold
- fold change in RNA, ESM1 [1, 4]: −2.6 fold
- fold change in RNA, LOXL2 [1, 4]: −1.9 fold
- fold change in RNA, RCCD1 [1, 4]: −3.6 fold
- fold change in RNA, STRA6 [1, 4]: −3.1 fold
- fold change in RNA, UBD/FAT10 [1, 4]: −2.0 fold
- secretion of inflammation and fibrosis biomarkers [2]: reduced secretion of collagen1α1, fibronectin, hyaluronic acid, IL-6, and MCP-1; also recorded: decreased the mean daily secretion and gene expression of all markers
